≈ marks a conversion by molar mass, not a printed value.
Legend:
Type in all cases: cell-based
Escherichia coli = assay: Anti-microbial activity assay, MIC by broth microdilution; conditions: Escherichia coli; strain UB1005; read-out: MIC Escherichia coli UB1005
Experimental: (§1) Anti-Microbial Activity Assay.
(§2) The antibacterial activity of compounds is determined by the minimal inhibitory concentration (MIC) method. MICs for all bacteria except pneumococci and Haemophilus influenzae are obtained by broth microdilution with cation-adjusted Mueller-Hinton broth (CAMHB; BBL), according to CLSI guidelines (National Committee for Clinical Laboratory Standards. 2003. Methods for dilution antimicrobial susceptibility tests for bacteria that grow aerobically, 5th ed.; approved standard M7-A6. National Committee for Clinical Laboratory Standards, Wayne, Pa.), with the following modifications: (i) for pneumococci CAMHB is supplemented with 5% (^v/v) horse serum; (ii) for Haemophilus influenzae CAMHB is supplemented with 5% (^v/v) Fildes enrichment (BBL) (Pankuch, G. A., Hoellman, D. B., Lin, G., Bajaksouzian, S., Jacobs, M. R., and Appelbaum, P. C. 1998. Activity of HMR 3647 compared to those of five agents against Haemophilus influenzae and Moraxella catarrhalis by MIC determination and time-kill assay. Antimicrob. Agents Chemother. 42:3032-3034). Microtiter plates are incubated at 35° C. in ambient air for 20 to 24 h, then inspected using an illuminated microtiter plate reader fitted with a magnifying mirror (MIC 2000; Cooke Laboratory Products, Alexandria, Va.). Compounds of the present invention are tested against several bacteria strains comprising some Acinetobacter baumannii, Enterococcus faecalis, Enterococcus faecitan, Escherichia coli, Haemophilus influenzae, Klebsiella pneumoniae, Pseudomonas aeruginosa, Staphylococcus aureus, Staphylococcus epidermidis and Streptococcus pneumoniae.

Staphylococcus aureus = assay: as above; conditions: Staphylococcus aureus; strain ATCC29213; read-out: MIC Staphylococcus aureus ATCC29213
Experimental: as §1, §2

[1] = tested on: Staphylococcus epidermidis; assay: as above; conditions: Staphylococcus epidermidis; strain ATCC14990
Experimental: as §1, §2

Streptococcus pneumoniae = assay: Anti-microbial activity assay, MIC by broth microdilution (CAMHB with 5% horse serum); conditions: Streptococcus pneumoniae; strain ATCC49619; CAMHB with 5% horse serum; read-out: MIC Streptococcus pneumoniae ATCC49619
Experimental: as §1, §2

[2] = tested on: Staphylococcus aureus and/or Staphylococcus epidermidis; assay: MIC summary statement, staphylococci; conditions: generally, for Staphylococcus aureus and/or Staphylococcus epidermidis
Experimental: as §1, §2

[3] = tested on: Staphylococcus aureus and/or Staphylococcus epidermidis and/or Streptococcus pneumoniae; assay: MIC summary statement, staphylococci and pneumococci; conditions: generally, for Staphylococcus aureus and/or Staphylococcus epidermidis and/or Streptococcus pneumoniae
Experimental: as §1, §2

Compound	MIC (Escherichia coli) [µg/mL]	MIC (Staphylococcus aureus) [µg/mL]	MIC [1] [µg/mL]	MIC (Streptococcus pneumoniae) [µg/mL]	MIC [2] [µg/mL]	MIC [3] [µg/mL]
COc1ccc2ncc(OCC[C@H]3CC[C@H](NC(=O)c4ccc5c(c4)NC(=O)CS5)CC3)cc2n1 [Example 2, 3-oxo-3,4-dihydro-2H-benzo[1,4]thiazine-6-carboxylic acid {trans-4-[2-(6-methoxy-[1,5]naphthyridin-3-yloxy)-ethyl]-cyclohexyl}-amide]	> 32	≤ 2	≤ 2	≤ 2	≤ 2	≤ 2
COc1ccc2ncc(OCCN3CCC(NC(=O)c4cc(-c5cccs5)on4)CC3)nc2c1 [Example 5, 5-thiophen-2-yl-isoxazole-3-carboxylic acid {1-[2-(7-methoxy-quinoxalin-2-yloxy)-ethyl]-piperidin-4-yl}-amide]	> 32	≤ 2	≤ 2	≤ 2	≤ 2	≤ 2
O=C1CSc2ccc(C(=O)N[C@H]3CC[C@H](CCOc4cnc5ccc(F)cc5n4)CC3)cc2N1 [Example 7, 3-oxo-3,4-dihydro-2H-benzo[1,4]thiazine-6-carboxylic acid {trans-4-[2-(7-fluoro-quinoxalin-2-yloxy)-ethyl]-cyclohexyl}-amide]	> 32	≤ 2	> 32	> 32	≤ 2	–
COc1ccc2ncc(OCCCN3CC(NC(=O)c4ccc5c(c4)NC(=O)CS5)C3)nc2c1 [Example 8, 3-oxo-3,4-dihydro-2H-benzo[1,4]thiazine-6-carboxylic acid {1-[3-(7-methoxy-quinoxalin-2-yloxy)-propyl]-azetidin-3-yl}-amide]	16 (≈ 33.4 µM)	≤ 2	4 (≈ 8.34 µM)	16 (≈ 33.4 µM)	≤ 2	–
COc1ccc2ncc(OC(CN3CCC(NC(=O)c4ccc5c(c4)NC(=O)CS5)CC3)C(F)(F)F)nc2c1 (stereo not shown) [Example 14, 3-oxo-3,4-dihydro-2H-benzo[1,4]thiazine-6-carboxylic acid {1-[3,3,3-trifluoro-2-(7-methoxy-quinoxalin-2-yloxy)-propyl]-piperidin-4-yl}-amide]	> 32	≤ 2	8 (≈ 14.2 µM)	8 (≈ 14.2 µM)	≤ 2	–
COc1ccc2ncc(OCCN3CCC(NC(=O)c4cc5c(cc4Cl)SCC(=O)N5)CC3)nc2c1 [Example 15, 7-chloro-3-oxo-3,4-dihydro-2H-benzo[1,4]thiazine-6-carboxylic acid {1-[2-(7-methoxy-quinoxalin-2-yloxy)-ethyl]-piperidin-4-yl}-amide]	4 (≈ 7.58 µM)	≤ 2	≤ 2	8 (≈ 15.2 µM)	≤ 2	–
COc1ccc2ncc(OCCN3CCC(NC(=O)c4cc5c(cc4Cl)SCC(=O)N5)CC3)cc2n1 [Example 16, 7-chloro-3-oxo-3,4-dihydro-2H-benzo[1,4]thiazine-6-carboxylic acid {1-[2-(6-methoxy-[1,5]naphthyridin-3-yloxy)-ethyl]-piperidin-4-yl}-amide]	8 (≈ 15.2 µM)	≤ 2	4 (≈ 7.58 µM)	8 (≈ 15.2 µM)	≤ 2	–
COc1ccc2ccc(OCCN3CCC(NC(=O)c4ccc5c(n4)NC(=O)CS5)CC3)nc2c1 [Example 17, 3-oxo-3,4-dihydro-2H-pyrido[3,2-b][1,4]thiazine-6-carboxylic acid {1-[2-(7-methoxy-quinolin-2-yloxy)-ethyl]-piperidin-4-yl}-amide]	> 32	≤ 2	4 (≈ 8.1 µM)	16 (≈ 32.4 µM)	≤ 2	–
COc1cnc2ccc(OCCN3CCC(NC(=O)c4ccc5c(c4)NC(=O)CS5)CC3)nc2c1 [Example 18, 3-oxo-3,4-dihydro-2H-benzo[1,4]thiazine-6-carboxylic acid {1-[2-(7-methoxy-[1,5]naphthyridin-2-yloxy)-ethyl]-piperidin-4-yl}-amide]	8 (≈ 16.2 µM)	≤ 2	≤ 2	4 (≈ 8.1 µM)	≤ 2	–
COc1cnc2ccc(OCCN3CCC(NC(=O)c4cc5c(cc4Cl)SCC(=O)N5)CC3)nc2c1 [Example 19, 7-chloro-3-oxo-3,4-dihydro-2H-benzo[1,4]thiazine-6-carboxylic acid {1-[2-(7-methoxy-[1,5]naphthyridin-2-yloxy)-ethyl]-piperidin-4-yl}-amide]	4 (≈ 7.58 µM)	≤ 2	≤ 2	8 (≈ 15.2 µM)	≤ 2	–
COc1ccc2ncc(OCCN3CCC(NC(=O)c4ccc5c(n4)NC(=O)CS5)CC3)nc2c1 [Example 20, 3-oxo-3,4-dihydro-2H-pyrido[3,2-b][1,4]thiazine-6-carboxylic acid {1-[2-(7-methoxy-quinoxalin-2-yloxy)-ethyl]-piperidin-4-yl}-amide]	> 32	≤ 2	≤ 2	> 32	≤ 2	–
COc1ccc2ncc(C(=O)OC[C@H]3CC[C@H](NC(=O)c4ccc5c(c4)NC(=O)CS5)CC3)cc2c1 [Example 28, 6-methoxy-quinoline-3-carboxylic acid trans-4-[(3-oxo-3,4-dihydro-2H-benzo[1,4]thiazine-6-carbonyl)-amino]-cyclohexylmethyl ester]	> 32	≤ 2	≤ 2	> 32	≤ 2	–
COc1ccc2ncc(C(=O)OC[C@H]3CC[C@H](NCc4ccc5c(c4)OCCO5)CC3)cc2n1 [Example 29, 6-methoxy-[1,5]naphthyridine-3-carboxylic acid trans-4-[(2,3-dihydro-benzo[1,4]dioxin-6-ylmethyl)-amino]-cyclohexylmethyl ester]	> 32	≤ 2	≤ 2	4 (≈ 8.63 µM)	≤ 2	–
COc1ccc2ncc(C(=O)OC[C@H]3CC[C@H](NC(=O)c4ccc5c(n4)NC(=O)CO5)CC3)cc2n1 [Example 30, 6-methoxy-[1,5]naphthyridine-3-carboxylic acid trans-4-[(3-oxo-3,4-dihydro-2H-pyrido[3,2-b][1,4]oxazine-6-carbonyl)-amino]-cyclohexylmethyl ester]	> 32	≤ 2	4 (≈ 8.14 µM)	> 32	≤ 2	–
COc1ccc2ncc(C(=O)OC[C@H]3CC[C@H](NCCSc4cccs4)CC3)cc2n1 [Example 31, 6-methoxy-[1,5]naphthyridine-3-carboxylic acid trans-4-[2-(thiophen-2-ylsulfanyl)-ethylamino]-cyclohexylmethyl ester]	> 32	≤ 2	4 (≈ 8.74 µM)	8 (≈ 17.5 µM)	≤ 2	–
COc1ccc2ncc(SCCN3CCC(NC(=O)c4cc(-c5cccs5)on4)CC3)nc2c1 [Example 35, 5-thiophen-2-yl-isoxazole-3-carboxylic acid {1-[2-(7-methoxy-quinoxalin-2-ylsulfanyl)-ethyl]-piperidin-4-yl}-amide]	> 32	≤ 2	≤ 2	≤ 2	≤ 2	≤ 2
COc1ccc2ncc(SCCN3CCC(NCCSc4cccs4)CC3)nc2c1 [Example 38, {1-[2-(7-methoxy-quinoxalin-2-ylsulfanyl)-ethyl]-piperidin-4-yl}-[2-(thiophen-2-ylsulfanyl)-ethyl]-amine]	16 (≈ 34.7 µM)	≤ 2	≤ 2	≤ 2	≤ 2	≤ 2
COc1ccc2ncc(SCCN3CCC(NC(=O)c4ccc5c(c4)OCCO5)CC3)nc2c1 [Example 39, 2,3-dihydro-benzo[1,4]dioxine-6-carboxylic acid {1-[2-(7-methoxy-quinoxalin-2-ylsulfanyl)-ethyl]-piperidin-4-yl}-amide]	≥ 32	≤ 2	≤ 2	≤ 2	≤ 2	≤ 2
COc1ccc2ncc(SCCN3CCC(NCc4ccc5c(c4)OCCO5)CC3)nc2c1 [Example 41, (2,3-dihydro-benzo[1,4]dioxin-6-ylmethyl)-{1-[2-(7-methoxy-quinoxalin-2-ylsulfanyl)-ethyl]-piperidin-4-yl}-amine]	8 (≈ 17.1 µM)	≤ 2	≤ 2	≤ 2	≤ 2	≤ 2
COc1ccc2ncc(SCCN3CCC(NC(=O)c4nc5c(cc4Cl)SCC(=O)N5)CC3)cc2c1 [Example 56, 7-chloro-3-oxo-3,4-dihydro-2H-pyrido[3,2-b][1,4]thiazine-6-carboxylic acid {1-[2-(6-methoxy-quinolin-3-ylsulfanyl)-ethyl]-piperidin-4-yl}-amide]	4 (≈ 7.35 µM)	≤ 2	4 (≈ 7.35 µM)	16 (≈ 29.4 µM)	≤ 2	–
